Experimental data: the NIST ThermoML archive (doi:10.1021/je800077r)
± gives the expanded uncertainty stated by the source.

Legend:
[1] = xn = mol fraction of the nth substance listed; conditions: 101 kPa, Liquid; for speed of sound: Sing-around technique in a fixed-path interferometer; for mass density: Vibrating tube method
[2] = refractive index (Na D-line) (dimensionless); xn = mol fraction of the nth substance listed; conditions: 101 kPa, Liquid, Standard Abbe refractometry

speed of sound ([1]; 293.15 K, x1 = 1) [m/s] | mass density ([1]; 293.15 K, x1 = 1) [kg/m3] | speed of sound ([1]; 298.15 K, x1 = 1) [m/s] | mass density ([1]; 298.15 K, x1 = 1) [kg/m3] | speed of sound ([1]; 303.15 K, x1 = 1) [m/s] | mass density ([1]; 303.15 K, x1 = 1) [kg/m3] | refractive index ([2]; 293.15 K, x1 = 1) | refractive index ([2]; 298.15 K, x1 = 1) | refractive index ([2]; 303.15 K, x1 = 1) | Structure (SMILES) | speed of sound ([1]; 293.15 K, x2 = 0) [m/s] | mass density ([1]; 293.15 K, x2 = 0) [kg/m3] | speed of sound ([1]; 298.15 K, x2 = 0) [m/s] | mass density ([1]; 298.15 K, x2 = 0) [kg/m3] | speed of sound ([1]; 303.15 K, x2 = 0) [m/s] | mass density ([1]; 303.15 K, x2 = 0) [kg/m3] | refractive index ([2]; 293.15 K, x2 = 0) | refractive index ([2]; 298.15 K, x2 = 0) | refractive index ([2]; 303.15 K, x2 = 0)
1100 ± 2 | 659.5 ± 0.3 | 1078 ± 2 | 654.9 ± 0.3 | 1055 ± 2 | 650.4 ± 0.3 | 1.37495 ± 0.00067 | 1.37217 ± 0.00067 | 1.36936 ± 0.00067 | CCCCCC [hexane] + CCOC(C)=O | – | – | – | – | – | – | – | – | –
– | – | – | – | – | – | – | – | – | CCOC(C)=O [ethyl acetate] + CCCCCCn1cc[n+](C)c1.F[P-](F)(F)(F)(F)F | 1162 ± 1 | 900.5 ± 0.1 | 1141 ± 1 | 894.4 ± 0.1 | 1111 ± 1 | 888.2 ± 0.1 | 1.37241 ± 0.00061 | 1.36977 ± 0.00061 | 1.36712 ± 0.00062
